Measured values from article PMC11750672, “The in vivo metabolic pathway of Deg-AZM and in vitro investigations into the contribution of drug metabolizing enzymes and drug transporters in the drug interactions of Deg-AZM, a clinical-stage new transgelin agonist” (Frontiers in Pharmacology, 2025).

Experiments:
[1] = Exposure profiles of Deg-AZM and metabolites in rat plasma, urine, feces and bile (UPLC-QTOF-MS); type: in vivo, rats; settings: / = not detected
Protocol: The plasma samples at 0.167 h, 0.5 h, 3 h and 8 h after administration were obtained from the study of tissue distribution in rats ([Gu et al., 2024]). Urine, feces and bile samples at 0–24 h after administration were obtained from the excretion study of a single gavage administration of 25 mg/kg Deg-AZM in rats ([Gu et al., 2024]).
Plasma samples were precipitated with methanol at a ratio of 1:3. Urine samples were diluted with 50% methanol at a ratio of 1:80. The feces was thoroughly ground and sonicated with a 50% methanol at a ratio of 1 g/10 mL to obtain the homogenate, then the homogenate were precipitated with methanol at a ratio of 1:1. Bile samples were precipitated with 50% methanol at a ratio of 1:1. The above obtained samples were vortexed for 1 min and centrifugated at 4°C, 12,000 rpm for 10 min. Finally, the upper layer was analyzed using the UPLC-QTOF-MS system.
The metabolites of Deg-AZM in the plasma, urine, feces and bile samples were identified by UPLC-QTOF-MS system. Liquid chromatography was performed on an ACQUITY UPLC^TM I-Class UPLC unit with a Waters ACQUITY UPLC HSS T3 (100 × 2.1 mm, 1.8 µm). A gradient program was employed with the mobile phase combining solvent A (0.02% formic acid in 5% acetonitrile) and solvent B (acetonitrile) as follows: 100% A (0–0.5 min), 100%–85% A (0.5–7 min), 85%–5% A (7–9 min), 5% A (9–12 min), 5%–100% A (12–15 min). The flow rate was 0.40 mL/min. The column temperature was maintained at 40°C.
A Waters Q-TOF Xevo G2-XS Spectrometer equipped with ESI source under positive ion mode was utilized to conduct mass spectrometry detection, for which the MS^E mode was set at the mass range of 100–1,000 Da. The cone voltage was 40 V. The desolvation temperature was set at 500°C and source temperature was 100°C. The desolvation gas flow rate was 800 L/h and the cone gas flow rate was 50 L/h. In MS^E centroid mode, the MS data were acquired with the low energy function in the trap collision energy (6 eV), and the tandem mass data were acquired with the high energy function in the ramp trap collision energy (35–45 eV).
The extraction ion chromatogram of plasma samples at 0.167 h, 0.5 h, 3 h and 8 h after administration of Deg-AZM in rats was shown in Figure 2. The extraction ion chromatogram of urine, feces and bile samples collected from 0 to 24 h after oral administration of Deg-AZM in rats was shown in Figure 3. The AUC0-t of Deg-AZM and its metabolites in plasma sample were calculated by trapezoidal rule based on the chromatographic peak area. 21 metabolites were found in rat plasma, with M0 (Deg-AZM) and metabolite M2 (demethylated) being the main exposure forms in rat plasma. M0 and M2 accounted for 61.6% and 23.0% of the total related substances in rat plasma, respectively. The relative proportions of Deg-AZM and its metabolites in urine, feces and bile samples were evaluated by the chromatographic peak area, as shown in Figure 4. The detailed proportion of Deg-AZM and its metabolites could be found in Supplementary Table S1. M0 and 28 metabolites were found in the urine of rats. […] M0 and 42 metabolites were found in the feces of rats. Metabolite M1-2 (monohydroxylation, 18.1%) and metabolite M2 (16.6%) were the main forms of fecal excretion of Deg-AZM in rats after oral administration. M0 and 38 metabolites were found in the bile samples of rats. Metabolite M1-2 (monohydroxylation, 19.2%) and metabolite M2 (16.5%) were the main forms of biliary excretion of Deg-AZM in rats after oral administration.

[2] = design: method as in Gu et al., 2024; settings: rats, 0-24 h; ref Gu et al., 2024; cited from earlier work
[3] = test system: CYP3A4; test: CYP induction (mRNA, qPCR) in human hepatocytes; type: in vitro ADME; settings: for CYP3A4 induction, % of PC: PC rifampicin 20 μM
Description: (§1) After culture and complete induction, total mRNA was extracted by TRNzol RNA Extraction Kit (purchased from Tiangen Biochemical Technology Co., Ltd., Beijing). The RNA was reverse transcribed into cDNA according to the instructions of the Transcriptor First Strand cDNA Synthesis Kit (purchased from Roche, Switzerland). Using reverse transcribed cDNA as a template, amplifying the internal reference genes of β-Actin of the sample and target genes of CYP1A2, CYP2B6, and CYP3A4 respectively to compare the expression differences.

[4] = test system: CYP1A2; test: CYP induction (mRNA, qPCR) in human hepatocytes; type: in vitro ADME; settings: for CYP1A2 induction, % of PC: PC omeprazole 50 μM
Description: as §1

[5] = 5 μM, hepatocyte batch LHuf 17905B
[6] = 25 μM, hepatocyte batch LHuf 17905B
[7] = 100 μM, hepatocyte batch LHuf 17905B

CYP3A4 induction, % of PC ([3]; 5 μM, batch HUB): 2.15% | CYP3A4 induction, % of PC ([3]; 5 μM, batch LHuf 17905B): 5.55% | CYP3A4 induction, % of PC ([3]; 5 μM, batch MWB): 1.99% | CYP3A4 mRNA induction, times of control group ([3]; 5 μM, hepatocyte batch HUB): 1.80 | CYP3A4 mRNA induction, times of control group [3, 5]: 2.30 | CYP3A4 mRNA induction, times of control group ([3]; 5 μM, hepatocyte batch MWB): 1.96 | CYP3A4 induction, % of PC ([3]; 25 μM, batch HUB): 3.06% | CYP3A4 induction, % of PC ([3]; 25 μM, batch LHuf 17905B): 12.1% | CYP3A4 induction, % of PC ([3]; 25 μM, batch MWB): 6.32% | CYP3A4 mRNA induction, times of control group ([3]; 25 μM, hepatocyte batch HUB): 2.13 | CYP3A4 mRNA induction, times of control group [3, 6]: 3.84 | CYP3A4 mRNA induction, times of control group ([3]; 25 μM, hepatocyte batch MWB): 4.05 | CYP3A4 induction, % of PC ([3]; 100 μM, batch HUB): 13.5% | CYP3A4 induction, % of PC ([3]; 100 μM, batch LHuf 17905B): 54.2% | CYP3A4 induction, % of PC ([3]; 100 μM, batch MWB): 29.3% | CYP3A4 mRNA induction, times of control group ([3]; 100 μM, hepatocyte batch HUB): 6.01 | CYP3A4 mRNA induction, times of control group [3, 7]: 13.7 | CYP3A4 mRNA induction, times of control group ([3]; 100 μM, hepatocyte batch MWB): 15.2 | Induction effect on CYP3A4 (conclusion) ([3]; 5, 25, and 100 µM, three batches of primary human hepatocytes): has an inducing effect | CYP1A2 induction, % of PC ([4]; 5 μM, batch HUB): −0.318% | CYP1A2 induction, % of PC ([4]; 5 μM, batch LHuf 17905B): −0.507% | CYP1A2 induction, % of PC ([4]; 5 μM, batch MWB): 0.0293% | CYP1A2 mRNA induction, times of control group ([4]; 5 μM, hepatocyte batch HUB): 0.850 | CYP1A2 mRNA induction, times of control group [4, 5]: 0.721 | CYP1A2 mRNA induction, times of control group ([4]; 5 μM, hepatocyte batch MWB): 1.02 | CYP1A2 induction, % of PC ([4]; 25 μM, batch HUB): −0.349% | CYP1A2 induction, % of PC ([4]; 25 μM, batch LHuf 17905B): −0.569% | CYP1A2 induction, % of PC ([4]; 25 μM, batch MWB): −0.0814% | CYP1A2 mRNA induction, times of control group ([4]; 25 μM, hepatocyte batch HUB): 0.835 | CYP1A2 mRNA induction, times of control group [4, 6]: 0.687 | CYP1A2 mRNA induction, times of control group ([4]; 25 μM, hepatocyte batch MWB): 0.948 | CYP1A2 induction, % of PC ([4]; 100 μM, batch HUB): 0.0545% | CYP1A2 induction, % of PC ([4]; 100 μM, batch LHuf 17905B): −0.209% | CYP1A2 induction, % of PC ([4]; 100 μM, batch MWB): −0.319% | CYP1A2 mRNA induction, times of control group ([4]; 100 μM, hepatocyte batch HUB): 1.03 | CYP1A2 mRNA induction, times of control group [4, 7]: 0.885 | CYP1A2 mRNA induction, times of control group ([4]; 100 μM, hepatocyte batch MWB): 0.797 | Induction effect on CYP1A2 (conclusion) ([4]; 5, 25, and 100 µM, three batches of human hepatocytes): no induction effect
SMILES: CCC1OC(=O)C(C)C(O)C(C)C(O)C(C)(O)CC(C)CN(C)C(C)C(O)C1(C)O (centres unmarked) [Deg-AZM, Deglycosylated azithromycin]
Proportion in total related substances, Bile ([1]; rat bile 0-24 h, single gavage 25 mg/kg Deg-AZM, by peak area): 7.95% | Proportion in total related substances, Feces ([1]; rat feces 0-24 h, single gavage 25 mg/kg Deg-AZM, by peak area): 9.12% | Proportion in total related substances, Plasma ([1]; rat plasma 0.167-8 h after oral Deg-AZM, by AUC0-t of chromatographic peak area): 61.6% | Proportion in total related substances, Urine ([1]; rat urine 0-24 h, single gavage 25 mg/kg Deg-AZM, by peak area): 62.9% | Amount excreted in original form from feces [2]: 1.81 % of the administered dose | Amount excreted in original form from urine [2]: 14.9 % of the administered dose
